From paper PMC5847527, “Identification of a novel 2-oxindole fluorinated derivative as in vivo antitumor agent for prostate cancer acting via AMPK activation” (Scientific Reports, 2018) come the findings set out here.

What all share (type): cell-based, human
The test system of one experiment is LNCaP cells. Nature of the experiment: Cell viability by MTT assay, LNCaP. The procedure: Figure 3 Comparison of the effect of 2-oxindole fluorinated derivatives on the proliferation of human prostate cancer cells. (A) Normal (PTN2 and RWPE-1) and cancer (PC3,DU145 and LNCaP) prostate cells were treated with different doses of the compounds for 24 hours and cell viability was monitored by MTT assay. […] (C) PC-3, DU145 and LNCaP cells were treated with 25 µM of compound 8c for different times. Values were normalized with the control and represent the mean ± SD of at least three independent experiments. *p < 0.05 and **p < 0.01 compared to control by the Student’s - test.
Human prostate cancer epithelial PC-3, DU145 and LNCaP and human prostate normal RWPE-1 cells were purchased from American Type Culture Collection (ATCC CRL-1435 CRL-1740 and CRL 11609 respectively) (Rockville, MD, USA). The human prostate normal PNT2 cell line was purchased to ECACC (European Collection of Cell cultures, Salisbury, SP4 0JG, UK). Cells were routinely grown in RPMI 1640 medium supplemented with 100 IU/ml penicillin G sodium, 100 µg/ml streptomycin sulfate, 0.25 µg/ml amphotericin B (Invitrogen, Paisley, UK) and 10% fetal calf serum. Cells were used at passages between 10–20. For treatment experiments, cells were plated and grown over night, the medium was then replaced with serum-free RPMI 1640 for 24 hours and then incubated with different doses of the compounds for the indicated times.
Cell viability was determined by 3-(4,5-dimethylthiazol-2-yl)-2,5-diphenyltetrazolium bromide (MTT) (Sigma-Aldrich) method. […] The optical density in each well was evaluated by measurement of absorbance at 490 and 650 nm using a microplate reader (ELX 800 Bio-Tek Intruments, INC). IC50 values were calculated using GraphPad Prism vs 6.0 (GraphPad Software, Inc, La Jolla, CA, USA). Cell viability was also determined by counting viable and dead cells by Trypan blue staining. Trypan blue positive and negative cells were counted using a Countess^TM automated cell counter (Invitrogen, Carlsbad, CA, USA). Results were expressed in relation to total number of cells counted.

Another experiment has as its system PC-3 cells. Nature of the experiment: Cell cycle analysis by flow cytometry (Propidium Iodide), PC-3. The following applies: PC-3, 24 h, 25 μM and 50 μM tested (concentration of this value not stated). The procedure:
For that, we treated PC-3 and LNCaP cells with 25 μM and 50 μM of compound 8c for 24 h and performed cell cycle analysis by flow cytometry using Propidium Iodide (PI). […] It is worthy to note that when PC-3 cells were treated with compound 8c, 80% of cells were in subG0 phase (Fig. 4A).
Figure 4 Cell Cycle analysis in 8c-treated prostate cancer cells. (A) PC-3 and LNCaP cells were treated with compound 8c for 24 hours and cell cycle analysis was analyzed by flow cytometry using Propidium Iodide (PI). Percentage of cells in subG0, G1, S, and G2/M phases is indicated in the histogram. (B) Levels of Cyclin D1, p-p53, p53, p21 and cleaved Caspase 3 (17 kDa fragment) were determined by Western blot. Upper panel, representative Western blot of two different experiments. β-tubulin (β-Tub) serves as a loading control. Lower panel, the densitometric analyses of bands represented as the mean ± SD of the two different experiments. *p < 0.05 and **p < 0.01 compared with the control group by the Student’s t-test.
Flow cytometry was used to detect the distribution of cell cycle. After being cultivated with the treatment, 10^5 cells in 35 mm culture dish were harvested in 0.35% trypsin, collected and fixed with 70% cold ethanol at 4 °C for 1 h. Then, cells were centrifuged at 1500 g for 5 min and incubated in 0.5 ml PBS containing 0.1 mg/ml RNase for 30 min at 37 °C. […]
A general note: A flow cytometer gives signals particle by particle.

A further experiment has as its system p53. The experiment in a line: p53 and p-p53 level by Western blot in LNCaP cells. As for the experimental part: Figure 4 Cell Cycle analysis in 8c-treated prostate cancer cells. (A) PC-3 and LNCaP cells were treated with compound 8c for 24 hours and cell cycle analysis was analyzed by flow cytometry using Propidium Iodide (PI). Percentage of cells in subG0, G1, S, and G2/M phases is indicated in the histogram. (B) Levels of Cyclin D1, p-p53, p53, p21 and cleaved Caspase 3 (17 kDa fragment) were determined by Western blot. Upper panel, representative Western blot of two different experiments. β-tubulin (β-Tub) serves as a loading control. […]
Cyclin D1 activity is modulated by several inhibitors such as p21 which negatively regulate cell cycle progression by interacting with cyclin dependent kinases (cdks). […] To further study the role of compound 8c in cell cycle, we determined the expression of p21, p53 and the levels of cleaved caspase 3 in the prostate cells. P53 was only determined in LNCaP cells since PC-3 cells are p53-negative[40].
Cells were lysed in Lysis buffer (50 mM Tris pH 7.4, 0.8 M NaCl, 5 mM MgCl2, 0.1% Triton X-100) containing Protease Inhibitor and Phosphatase inhibitor Cocktails (Roche, Basel, Switzerland). Protein concentrations were measured by BioRad™ protein assay kit (Richmond, CA, USA). […] Films were analyzed by densitometry. […]
In general terms: In western blotting, separated proteins are transferred to a membrane and probed.

pIC50: −log10 of the molar value.

The pIC50 is −log10 of the IC50, conventionally taken in molar units. A higher pIC50 goes with a low IC50. As to `O=C1Nc2ccccc2C1(F)Cc1ccc(-c2ccccc2)o1` (stereo not shown) [Compound 8c, 3-fluoro-3-((5-phenylfuran-2-yl)methyl)indolin-2-one], the “inhibitory efficacy on cells viability at 50 μM” value with LNCaP cells (50 μM) was found to be 85%. For the same compound, the pIC50 in the experiment with LNCaP cells (Homo sapiens, MTT, 24 hours) was 4.52. The “cells in subG0 phase” value in the experiment with PC-3 cells is given as 80%. Further, in the experiment with p53, the “total and phosphorylated p53” value was “increase in the total and phosphorylated forms of p53”.
